Paper PMC3579193, “Elucidation of relaxin-3 binding interactions in the extracellular loops of RXFP3” (Frontiers in Endocrinology, 2013)
Positions count from the first letter of the chain named. Entries after “also recorded” stand apart in the source; their conditions may differ.

Legend:
HA-RXFP3 = target: T1, HA-RXFP3 (Homo sapiens, UniProt Q9NSD7); test: Competition binding with Eu-H3/I5, HA-RXFP3; details: HA-RXFP3 vs wild-type RXFP3, competition binding
T1 construct: expressed in transfected cells; host or cells: HEK-293T
T1 sequence (Q9NSD7 2-469 limits assumed): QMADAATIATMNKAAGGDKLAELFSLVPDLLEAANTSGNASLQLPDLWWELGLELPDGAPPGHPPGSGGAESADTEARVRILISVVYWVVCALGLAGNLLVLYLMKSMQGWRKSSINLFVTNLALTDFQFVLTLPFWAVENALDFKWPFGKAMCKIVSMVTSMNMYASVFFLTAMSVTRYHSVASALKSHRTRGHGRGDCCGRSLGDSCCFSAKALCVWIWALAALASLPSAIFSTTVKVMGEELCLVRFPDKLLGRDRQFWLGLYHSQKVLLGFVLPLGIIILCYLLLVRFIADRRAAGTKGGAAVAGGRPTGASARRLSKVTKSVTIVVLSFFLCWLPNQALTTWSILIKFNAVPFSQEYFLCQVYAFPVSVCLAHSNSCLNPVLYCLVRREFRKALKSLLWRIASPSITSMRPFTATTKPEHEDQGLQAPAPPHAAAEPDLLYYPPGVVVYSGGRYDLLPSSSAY
Experimental: HEK-293T cells were transfected in 96 well optiplates (Perkin Elmer) with plasmids encoding the constructs of interest and Eu-H3/I5 binding assays conducted as described previously ([Luo et al., 2010]; [Haugaard-Kedstrom et al., 2011]). […] Binding data are expressed as mean ± standard error of mean (SEM) of % specific binding of triplicate measurements pooled from at least three independent experiments. Data were analyzed using Graphpad PRISM (Graphpad Inc.) and a non-linear regression one-site binding model was used to plot curves and calculate pIC50 values. All the RXFP3 constructs used in this study contained an N-terminal HA epitope. The HA epitope was detected using a purified mouse monoclonal anti-HA antibody [HA.11(16B12), Covance] and a Alexafluor488-labeled goat anti mouse IgG (Invitrogen) in cell surface expression assays that were performed in 24 well plates as previously described ([Yan et al., 2008]). […] Specific binding data for RXFP3 mutants was expressed as mean ± SEM of % specific binding/%HA-RXFP3 cell surface expression of triplicate measurements pooled from at least three independent experiments. Pooled data were analyzed using one-way ANOVA coupled to Newman–Keuls multiple comparison test for multiple group comparison.

RXFP4 = details: ref Liu et al., 2003a; cited from earlier work
Description: Relaxin-3 is a member of the relaxin peptide family. Peptides from this family activate relaxin family peptide (RXFP) receptors, which are Type I or Class A G protein-coupled receptors (GPCRs). […] The rela ... || Based on the hypothesis that coevolution of relaxin-3 and RXFP3 occurred in vertebrates and that residues important for relaxin-3 binding and activation should therefore be conserved we performed multiple sequence alignments of all vertebrate RXFP3 sequences. […] Figure 1A highlights sequence alignments of representative mammalian species (human, chimpanzee, rat, mouse, platypus) and representative lower vertebrate species (Frog and Zebrafish) from this analysis compa ... || Based on the hypothesis that coevolution of relaxin-3 and RXFP3 occurred in vertebrates, and in the knowledge that the key relaxin-3 B-chain residues are conserved across all vertebrate species ([Wilkinson et al., 2005b]), we performed multiple sequence alignments of all vertebrate RXFP3 sequences to identify highly conserved residues in the ELs and NT domain that may be involved in relaxin-3 binding. […] We have focused on glutamic (E) and aspartic acid (D) residues ...

HA-RXFP3 245A = target: T2, HA-RXFP3 245A (Homo sapiens, UniProt Q9NSD7, E245A); test: Competition binding with Eu-H3/I5, HA-RXFP3 E245A
T2 construct: expressed in transfected cells; host or cells: HEK-293T
T2 sequence (Q9NSD7 2-469 E245A limits assumed): T1 sequence (Q9NSD7 2-469 limits assumed) with E244A
Experimental: (§1) PCR reactions and cloning were undertaken as previously described ([Scott et al., 2006], [2012]).
(§2) The same protocol was used to prepare DNA templates of all Glu/Asp to Ala mutants, entailing a single codon change except for D47A/E51A, E55A/D58A, and E141A/D145A which required a double codon change both to Ala. The forward and reverse primers for all mutants are listed in Table 1 and mutagenesis reactions on pcDNA3.1zeo (+)-HA-RXFP3 were performed as previously described ([Scott et al., 2006]; [Yan et al., 2008]). […]
(§3) HEK-293T cells were transfected in 96 well optiplates (Perkin Elmer) with plasmids encoding the constructs of interest and Eu-H3/I5 binding assays conducted as described previously ([Luo et al., 2010]; [Haugaard-Kedstrom et al., 2011]). […] Binding data are expressed as mean ± standard error of mean (SEM) of % specific binding of triplicate measurements pooled from at least three independent experiments. Data were analyzed using Graphpad PRISM (Graphpad Inc.) and a non-linear regression one-site binding model was used to plot curves and calculate pIC50 values. […] The HA epitope was detected using a purified mouse monoclonal anti-HA antibody [HA.11(16B12), Covance] and a Alexafluor488-labeled goat anti mouse IgG (Invitrogen) in cell surface expression assays that were performed in 24 well plates as previously described ([Yan et al., 2008]). […]

HA-RXFP3 D75A = target: T3, HA-RXFP3 D75A (Homo sapiens, UniProt Q9NSD7, D75A); test: Competition binding with Eu-H3/I5, HA-RXFP3 D75A
T3 construct: expressed in transfected cells; host or cells: HEK-293T
T3 sequence (Q9NSD7 2-469 D75A limits assumed): T1 sequence (Q9NSD7 2-469 limits assumed) with D74A
Experimental: as §1, §2, §3

CC[C@H](C)[C@@H]1NC(=O)[C@H](Cc2ccccc2)NC(=O)[C@H](CCC(=O)O)NC(=O)[C@H](CCCNC(=N)N)NC(=O)CNC(=O)[C@@H](NC(=O)[C@H](CC(C)C)NC(=O)[C@H](CCCNC(=N)N)NC(=O)[C@@H](NC(=O)CNC(=O)[C@H](Cc2ccc(O)cc2)NC(=O)[C@@H]2CCCN2C(=O)[C@H](C)NC(=O)[C@H](C)NC(=O)[C@@H](N)CCCNC(=N)N)C(C)C)CSSC[C@@H]2NC(=O)[C@@H](NC(=O)[C@H](CO)NC(=O)[C@H](CO)NC(=O)[C@H](CO)NC(=O)[C@H](CC(C)C)NC(=O)CNC(=O)[C@H](C)NC(=O)[C@H](CC(C)C)NC(=O)[C@@H](NC(=O)[C@@H](N)CC(=O)O)C(C)C)CSSC[C@H](NC(=O)CNC(=O)[C@H](Cc3c[nH]c4ccccc34)NC(=O)[C@H](CCCCN)NC2=O)C(=O)N[C@@H](CO)C(=O)N[C@@H](CCCCN)C(=O)N[C@@H](CO)C(=O)N[C@@H](CCC(=O)O)C(=O)N[C@@H]([C@@H](C)CC)C(=O)N[C@@H](CO)C(=O)N[C@@H](CO)C(=O)N[C@@H](CC(C)C)C(=O)N[C@H](C(=O)O)CSSC[C@@H](C(=O)NCC(=O)NCC(=O)N[C@@H](CO)C(=O)N[C@@H](CCCNC(=N)N)C(=O)N[C@@H](Cc2c[nH]c3ccccc23)C(=O)O)NC(=O)[C@H]([C@@H](C)O)NC(=O)[C@H](Cc2ccccc2)NC(=O)[C@H]([C@@H](C)CC)NC(=O)[C@H](C(C)C)NC(=O)[C@H](C)NC(=O)[C@H](CCCNC(=N)N)NC1=O [H3 relaxin]
binding affinity compared with wild-type RXFP3 (HA-RXFP3): no difference in the binding affinity
binding to and activation of RXFP4 (RXFP4): binds to and activates human RXFP4
IC50 (HA-RXFP3 245A): 44.7 nM
affinity compared with HA-RXFP3 (HA-RXFP3 245A; competition binding, p > 0.05): slightly lower H3 relaxin binding affinity but this was not significantly different from HA-RXFP3; also recorded: no significant difference in H3 relaxin affinity; also recorded: did not show a significant drop in binding
IC50 (HA-RXFP3 D75A): 20 nM
affinity compared with HA-RXFP3 (HA-RXFP3 D75A; competition binding): no significant difference in the affinity
